Assays:
[1] = Rodent models: therapeutic effect versus hematopoietic impact; format: in vivo; conditions: rodents
KDM1A = KDM1A (Homo sapiens, UniProt O60341); assay: Chemoprobe-based KDM1A target engagement in PBMCs; format: in vivo
[2] = Plasma pharmacokinetics, single ascending dose; format: in vivo, human; conditions: for Tmax / half-life / AUC(0-inf) / AUC(0-t) / Cmax / Vd/F: human, plasma

Which results are given for `Nc1nnc(CN[C@@H]2C[C@H]2c2ccc(OCc3ccccc3)cc2)o1` [vafidemstat]?
Window between the therapeutic effect and hematopoietic impact [1]: 30 fold; Maximum KDM1A TE values (KDM1A; MAD, at 108 h after first dose (12 h after last dose), PBMCs): up to 90%; KDM1A binding in PBMCs (KDM1A; SAD and MAD): dose-dependent manner; Maximum KDM1A TE (KDM1A; SAD cohorts, 4 mg, at 12 h, PBMCs): around 80%; KDM1A TE peak versus plasma exposure (KDM1A; at Cmax,ss of ~ 30 ng/mL and AUCss of ~ 500 ng·h/mL): ~ 90%; KDM1A TE (KDM1A; older adult population, evaluable sample from a single individual): 85.6%; Variability, overall coefficient of variation ([2]; SAD and MAD cohorts, plasma PK): ≤ 30%; Tmax ([2]; both, oral): 0.5 to 2 h; half-life ([2]; both, oral): 20 to 30 h; AUC(0-inf) ([2]; male, po, 0.2 mg): 30.9 ng·h/mL; AUC(0-t) ([2]; male, po, 0.2 mg): 28 ng·h/mL; Cmax ([2]; male, po, 0.2 mg): 1.11 ng/mL; Tmax ([2]; male, po, 0.2 mg): 2.75 h; Vd/F ([2]; male, po, 0.2 mg): 260 L; half-life ([2]; male, po, 0.2 mg): 28 h; AUC(0-inf) ([2]; male, po, 0.6 mg): 90.7 ng·h/mL; AUC(0-t) ([2]; male, po, 0.6 mg): 83.3 ng·h/mL; Cmax ([2]; male, po, 0.6 mg): 3.21 ng/mL; Tmax ([2]; male, po, 0.6 mg): 1.83 h; Vd/F ([2]; male, po, 0.6 mg): 256 L; half-life ([2]; male, po, 0.6 mg): 27 h; AUC(0-inf) ([2]; male, po, 1.5 mg): 428 ng·h/mL; AUC(0-t) ([2]; male, po, 1.5 mg): 297 ng·h/mL; Cmax ([2]; male, po, 1.5 mg): 11.9 ng/mL; Tmax ([2]; male, po, 1.5 mg): 0.92 h; Vd/F ([2]; male, po, 1.5 mg): 213 L; half-life ([2]; male, po, 1.5 mg): 41 h; AUC(0-inf) ([2]; male, po, 2.5 mg): 438 ng·h/mL; AUC(0-t) ([2]; male, po, 2.5 mg): 402 ng·h/mL; Cmax ([2]; male, po, 2.5 mg): 18.8 ng/mL; Tmax ([2]; male, po, 2.5 mg): 1.58 h; Vd/F ([2]; male, po, 2.5 mg): 203 L; half-life ([2]; male, po, 2.5 mg): 25 h; AUC(0-inf) ([2]; male, po, 4 mg): 568 ng·h/mL; AUC(0-t) ([2]; male, po, 4 mg): 550 ng·h/mL; Cmax ([2]; male, po, 4 mg): 38 ng/mL; Tmax ([2]; male, po, 4 mg): 1.71 h; Vd/F ([2]; male, po, 4 mg): 204 L; half-life ([2]; male, po, 4 mg): 20 h
